Laboratory results from patent US10925876B2, “Methods for using triazolo-pyrazinyl soluble guanylate cyclase activators in fibrotic disorders” (Merck Sharp & Dohme Corp., priority 2016, dated 2021).

Experiments:
[1] = system: Spontaneously hypertensive rats (SHR); assay: Acute Efficacy in Spontaneously Hypertensive Rats (SHR), telemetry blood pressure; format: in vivo, rat; settings: single oral gavage
In short: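 Male SHR fitted with aortic telemetry transmitters and recovered 14 days; conscious blood pressure sampled 30 s every 10 min. Single oral gavage dose (vehicle 10% transcutol/20% Cremophor/70% water); hourly SBP change versus prior-day vehicle baseline, reported as maximum peak decrease.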

sGC α1/β1 heterodimer = biological target: T1, sGC α1/β1 heterodimer (Homo sapiens, UniProt Q02108+Q02153); assay: Cell-Based sGC Functional Assay (CASA Assay), cGMP generation in CHO-K1/sGC cells;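 further: reference Compound A is a published heme-dependent sGC activator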; settings: maximum cGMP production of Compound A set to 100% activation, read-out: % Act. (percent activation relative to Compound A)
T1 construct: expressed in transfected cells
T1 sequence (Q02108 1-690): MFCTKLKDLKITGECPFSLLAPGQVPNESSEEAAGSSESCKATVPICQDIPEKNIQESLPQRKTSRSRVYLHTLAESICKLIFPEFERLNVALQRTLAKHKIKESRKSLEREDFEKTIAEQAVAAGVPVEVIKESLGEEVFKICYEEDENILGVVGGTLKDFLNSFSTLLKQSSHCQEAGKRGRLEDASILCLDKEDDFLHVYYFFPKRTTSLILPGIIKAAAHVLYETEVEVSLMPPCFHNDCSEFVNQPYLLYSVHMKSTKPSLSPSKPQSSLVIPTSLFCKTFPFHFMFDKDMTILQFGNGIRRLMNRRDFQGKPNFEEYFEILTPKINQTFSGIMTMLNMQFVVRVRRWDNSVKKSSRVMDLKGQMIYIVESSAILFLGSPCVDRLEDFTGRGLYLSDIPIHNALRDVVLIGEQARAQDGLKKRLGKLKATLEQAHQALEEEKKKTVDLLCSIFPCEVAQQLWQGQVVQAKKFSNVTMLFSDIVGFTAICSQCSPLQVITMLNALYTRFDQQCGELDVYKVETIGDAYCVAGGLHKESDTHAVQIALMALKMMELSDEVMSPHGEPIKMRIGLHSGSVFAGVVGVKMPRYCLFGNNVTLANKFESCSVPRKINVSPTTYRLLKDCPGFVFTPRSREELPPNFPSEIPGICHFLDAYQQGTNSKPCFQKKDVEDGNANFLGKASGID
T1 sequence (Q02153 1-619): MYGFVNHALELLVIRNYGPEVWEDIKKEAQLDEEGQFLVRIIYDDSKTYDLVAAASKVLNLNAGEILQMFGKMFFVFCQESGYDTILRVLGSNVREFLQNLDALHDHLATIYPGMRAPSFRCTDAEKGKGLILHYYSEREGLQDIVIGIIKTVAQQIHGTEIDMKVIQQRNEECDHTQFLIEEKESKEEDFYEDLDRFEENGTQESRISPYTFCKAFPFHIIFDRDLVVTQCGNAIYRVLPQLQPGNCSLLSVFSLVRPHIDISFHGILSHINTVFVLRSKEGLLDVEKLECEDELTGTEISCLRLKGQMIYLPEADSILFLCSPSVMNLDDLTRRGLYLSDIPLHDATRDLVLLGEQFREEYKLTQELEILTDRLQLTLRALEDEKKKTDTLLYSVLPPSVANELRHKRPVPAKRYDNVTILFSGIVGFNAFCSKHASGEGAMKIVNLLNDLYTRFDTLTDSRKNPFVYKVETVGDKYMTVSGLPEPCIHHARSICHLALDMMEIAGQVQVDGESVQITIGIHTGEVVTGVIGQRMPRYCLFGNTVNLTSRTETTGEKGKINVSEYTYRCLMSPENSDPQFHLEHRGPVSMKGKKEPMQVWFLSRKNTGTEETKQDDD
In short: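 Intracellular cGMP quantified by HTRF competition after 1 h, 37 °C compound exposure, with or without 1 μM DETA-NO, in stable CHO-K1/sGC α1/β1 cells (4×10^5/mL; buffer with 0.5 mM IBMX, 5 mM MgCl2, 10 mM HEPES, 0.05% BSA; 2.5% DMSO). Activation normalized to reference Compound A maximum; 4P fit.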

SMILES	Emax (sGC α1/β1 heterodimer)	Maximum peak decrease of systolic blood pressure (SBP) in SHR, Cat. ([1]; P.O. 1 mpk)	Maximum peak decrease of systolic blood pressure (SBP) in SHR, Cat. ([1]; P.O. 3 mpk)	Maximum peak decrease of systolic blood pressure (SBP) in SHR, Cat. ([1]; P.O. 0.3 mpk)
CC1(c2ccc(F)cn2)C(=O)Nc2nc(-c3cn4ncnc4c(CCC(F)(F)C(F)(F)F)n3)nc(O)c21 (centres unmarked) [Example 122B, 5-(5-fluoropyridin-2-yl)-4-hydroxy-5-methyl-2-(8-(3,3,4,4,4-pentafluorobutyl)-[1,2,4]triazolo[1,5-a]pyrazin-6-yl)-5H-pyrrolo[2,3-d]pyrimidin-6(7H)-one]	100%	B (Category B=SBP in SHRs 20-40 mmHg)		
CC1(c2ccc(Cl)cn2)C(=O)Nc2nc(-c3cn4ncnc4c(CCCC(F)(F)F)n3)nc(O)c21 (centres unmarked) [Example 134A, 5-(5-chloropyridin-2-yl)-4-hydroxy-5-methyl-2-(8-(4,4,4-trifluorobutyl)-[1,2,4]triazolo[1,5-a]pyrazin-6-yl)-5H-pyrrolo[2,3-d]pyrimidin-6(7H)-one]	134%	B (Category B=SBP in SHRs 20-40 mmHg)		
C[C@@]1(c2ccc(F)cc2)C(=O)Nc2nc(-c3cn4ncnc4c(CCCC(F)(F)F)n3)nc(O)c21 [Example 135A, 5-(4-fluorophenyl)-4-hydroxy-5-methyl-2-(8-(4,4,4-trifluorobutyl)-[1,2,4]triazolo[1,5-a]pyrazin-6-yl)-5,7-dihydro-6H-pyrrolo[2,3-d]pyrimidin-6-one]	108%	B (Category B=SBP in SHRs 20-40 mmHg)		
CC1(c2ccc(F)cn2)C(=O)Nc2nc(-c3cn4ncnc4c(CCCC(F)(F)F)n3)nc(O)c21 (centres unmarked) [Example 136B, 5-(5-fluoropyridin-2-yl)-4-hydroxy-5-methyl-2-(8-(4,4,4-trifluorobutyl)-[1,2,4]triazolo[1,5-a]pyrazin-6-yl)-5H-pyrrolo[2,3-d]pyrimidin-6(7H)-one]	69%		B (Category B=SBP in SHRs 20-40 mmHg)	
O=C1Nc2nc(-c3cn4ncnc4c(CCCC(F)(F)F)n3)nc(O)c2C1(c1ccc(Cl)cc1)C1CC1 (centres unmarked) [Example 140B, 5-(4-chlorophenyl)-5-cyclopropyl-4-hydroxy-2-(8-(4,4,4-trifluorobutyl)-[1,2,4]triazolo[1,5-a]pyrazin-6-yl)-5H-pyrrolo[2,3-d]pyrimidin-6(7H)-one]	150%	A (Category A=SBP in SHRs <20 mmHg)		
O=C1Nc2nc(-c3cn4ncnc4c(CCCC(F)(F)F)n3)nc(O)c2C1(c1ccc(F)c(F)c1)C1CC1 (centres unmarked) [Example 141A, 5-cyclopropyl-5-(3,4-difluorophenyl)-4-hydroxy-2-(8-(4,4,4-trifluorobutyl)-[1,2,4]triazolo[1,5-a]pyrazin-6-yl)-5H-pyrrolo[2,3-d]pyrimidin-6(7H)-one]	133%	B (Category B=SBP in SHRs 20-40 mmHg)		
CC1(c2ccc(Cl)cc2)C(=O)Nc2nc(-c3cn4ncnc4c(CCCC(F)(F)F)n3)nc(O)c21 (centres unmarked) [Example 142A, 5-(4-chlorophenyl)-4-hydroxy-5-methyl-2-(8-(4,4,4-trifluorobutyl)-[1,2,4]triazolo[1,5-a]pyrazin-6-yl)-5H-pyrrolo[2,3-d]pyrimidin-6(7H)-one]	137%			B (Category B=SBP in SHRs 20-40 mmHg)
CC1(c2ccccc2)C(=O)Nc2nc(-c3cn4ncnc4c(CCCC(F)(F)F)n3)nc(O)c21 (centres unmarked) [Example 143B, 4-hydroxy-5-methyl-5-phenyl-2-(8-(4,4,4-trifluorobutyl)-[1,2,4]triazolo[1,5-a]pyrazin-6-yl)-5H-pyrrolo[2,3-d]pyrimidin-6(7H)-one]	114%	B (Category B=SBP in SHRs 20-40 mmHg)		
CC1(c2ccc(F)c(F)c2)C(=O)Nc2nc(-c3cn4ncnc4c(CCCC(F)(F)F)n3)nc(O)c21 (centres unmarked) [Example 146B, 5-(3,4-difluorophenyl)-4-hydroxy-5-methyl-2-(8-(4,4,4-trifluorobutyl)-[1,2,4]triazolo[1,5-a]pyrazin-6-yl)-5H-pyrrolo[2,3-d]pyrimidin-6(7H)-one]	154%			B (Category B=SBP in SHRs 20-40 mmHg)
C[C@@]1(c2ccc(F)cc2)C(=O)Nc2nc(-c3cn4ncnc4c(CCC(F)(F)F)n3)nc(O)c21 [Example 151A, (S)-5-(4-fluroophenyl)-4-hydroxy-5-methyl-2-(8-(3,3,3-trifluoropropyl)-[1,2,4]triazolo[1,5-a]pyrazin-6-yl)-5,7-dihydro-6H-pyrrolo[2,3-d]pyrimidin-6-one]	120%		B (Category B=SBP in SHRs 20-40 mmHg)	

Second part, led by results:

Emax (sGC α1/β1 heterodimer)	SMILES	Maximum peak decrease of systolic blood pressure (SBP) in SHR, Cat. ([1]; P.O. 1 mpk)	Maximum peak decrease of systolic blood pressure (SBP) in SHR, Cat. ([1]; P.O. 3 mpk)	Maximum peak decrease of systolic blood pressure (SBP) in SHR, Cat. ([1]; P.O. 0.3 mpk)
124%	C[C@@]1(c2ccc(F)cc2)C(=O)Nc2nc(-c3cn4ncnc4c(CCC(F)(F)C(F)(F)F)n3)nc(O)c21 [Example 119A, (S)-5-(4-fluorophenyl)-4-hydroxy-5-methyl-2-(8-(3,3,4,4,4-pentafluorobutyl)-[1,2,4]triazolo[1,5-a]pyrazin-6-yl)-5,7-dihydro-6H-pyrrolo[2,3-d]pyrimidin-6-one]	B (Category B=SBP in SHRs 20-40 mmHg)		
107%	CC1(c2ccc(Cl)cn2)C(=O)Nc2nc(-c3cn4ncnc4c(CCC(F)(F)C(F)(F)F)n3)nc(O)c21 (centres unmarked) [Example 120A, 5-(5-chloropyridin-2-yl)-4-hydroxy-5-methyl-2-(8-(3,3,4,4,4-pentafluorobutyl)-[1,2,4]triazolo[1,5-a]pyrazin-6-yl)-5H-pyrrolo[2,3-d]pyrimidin-6(7H)-one]	B (Category B=SBP in SHRs 20-40 mmHg)		
222%	CC1(c2ccc(Cl)c(F)c2)C(=O)Nc2nc(-c3cn4ncnc4c(CCC(F)(F)C(F)(F)F)n3)nc(O)c21 (centres unmarked) [Example 121B, 5-(4-chloro-3-fluorophenyl)-4-hydroxy-5-methyl-2-(8-(3,3,4,4,4-pentafluorobutyl)-[1,2,4]triazolo[1,5-a]pyrazin-6-yl)-5H-pyrrolo[2,3-d]pyrimidin-6(7H)-one]	B (Category B=SBP in SHRs 20-40 mmHg)		
87%	CC1(c2cncc(F)c2)C(=O)Nc2nc(-c3cn4ncnc4c(CCC(F)(F)C(F)(F)F)n3)nc(O)c21 (centres unmarked) [Example 125A, 5-(5-fluoropyridin-3-yl)-4-hydroxy-5-methyl-2-(8-(3,3,4,4,4-pentafluorobutyl)-[1,2,4]triazolo[1,5-a]pyrazin-6-yl)-5H-pyrrolo[2,3-d]pyrimidin-6(7H)-one]		A (Category A=SBP in SHRs <20 mmHg)	
119%	Cc1nc2c(CCC(F)(F)C(F)(F)F)nc(-c3nc(O)c4c(n3)NC(=O)C4(C)c3ccc(Cl)c(F)c3)cn2n1 (centres unmarked) [Example 132B, 5-(4-chloro-3-fluorophenyl)-4-hydroxy-5-methyl-2-(2-methyl-8-(3,3,4,4,4-pentafluorobutyl)-[1,2,4]triazolo[1,5-a]pyrazin-6-yl)-5H-pyrrolo[2,3-d]pyrimidin-6(7H)-one]	A (Category A=SBP in SHRs <20 mmHg)		
164%	CC1(c2ccc(Cl)c(F)c2)C(=O)Nc2nc(-c3cn4ncnc4c(CCCC(F)(F)F)n3)nc(O)c21 (centres unmarked) [Example 138B, 5-(4-chloro-3-fluorophenyl)-4-hydroxy-5-methyl-2-(8-(4,4,4-trifluorobutyl)-[1,2,4]triazolo[1,5-a]pyrazin-6-yl)-5H-pyrrolo[2,3-d]pyrimidin-6(7H)-one]	C (Category C=SBP in SHRs >40 mmHg)		
